In one test the test system is Toxoplasma gondii. The experiment in a line: MMV: A total of 100ul of inoculum was added to each well (parasite/cell ratio, ~10:1; final volume, 200 ul). Six hours after inoculation, nonadherent parasites were removed, and 100 ul of complete DMEM (1% penicillin-streptomycin, 3% FBS) supplemented with inhibitors at different concentrations (2-fold serial dilutions starting from 30 uM) was added to all except the negative-control wells. Positive controls, consisting of pyrimethamine (PYR) and sulfadiazine (SDZ) (20-mg/ml stocks in DMSO), were tested at a 2mg/ml final concentration. Each test was performed in triplicate. It is filed as functional, organism-based. The following applies: 6 h.

In a further test the test system is Entamoeba histolytica. The experiment in a line: MMV: Primary screening was performed with each compound at a 30 uM final concentration and in triplicate in sealed 96-well polystyrene microtiter plates. Parasite inocula (100 ul) comprising 20000 parasites/ml were added to each well and grown at 37 degrees C in a humidified atmosphere of 5% CO2 for 72 h. Positive controls consisted of metronidazole at 1 mg/ml. The growth of E. histolytica trophozoites in each well was determined microscopically by measuring the diameters of the confluent cells in drug-containing wells relative to those in the nega- tive-control wells. The class given is functional, organism-based.

Data on 68 compounds can be found in ChEMBL document CHEMBL3301448, “MMV Malaria Box screening against Toxoplasma gondii and Entamoeba histolytica”.

A value given as a limit tells only on which side of the number the result lay.

As usually defined, the IC50 is the concentration needed to halve the response being measured. For `CCOc1ccc(CN2CCN(CC(O)COc3ccc(OCC(O)CN4CCN(Cc5ccc(OCC)cc5)CC4)cc3)CC2)cc1` (stereo unspecified), the IC50 with Toxoplasma gondii and with Entamoeba histolytica was greater than 30 µM each time.

In the case of `CC1CCN(Cc2ccc(NC(=O)c3cc4ccc5cccnc5c4[nH]3)cc2)CC1`, the IC50 in the test on Toxoplasma gondii and in the test with Entamoeba histolytica was greater than 30 µM in each case.

Take `OC(CNC1CCCCC1)Cn1c2ccc(I)cc2c2cc(I)ccc21` (stereo unspecified): the half-inhibitory concentration (IC50) with Toxoplasma gondii and in the test with Entamoeba histolytica was greater than 30 µM each time.

On to `COC(=O)c1ccc(Cl)c2c1C1C=CCC1C(c1cccc3ccccc13)N2` (stereo unspecified), for which the half-inhibitory concentration (IC50) with Toxoplasma gondii and with Entamoeba histolytica was greater than 30 µM each time.

Turning to `COc1cccc(Cn2c(Oc3ccccc3)nc3c2c(=O)n(C)c(=O)n3C)c1`, the IC50 in the test with Toxoplasma gondii and in the test with Entamoeba histolytica was greater than 30 µM throughout.

Take `COc1ccc(C(=O)Nc2nonc2-c2ccc(OC)c(OC)c2)cc1Cl`: the IC50 with Toxoplasma gondii and in the test with Entamoeba histolytica was greater than 30 µM each time.

Consider `Cc1ccc(C2CC(C(F)(F)F)n3nc(C(=O)N4CCN(C(c5ccccc5)c5ccccc5)CC4)cc3N2)cc1` (stereo unspecified), for which the IC50 in the test on Toxoplasma gondii and in the test with Entamoeba histolytica was greater than 30 µM in each case.

Consider `CCCCC(O)(c1ccc(Cl)cc1)C(CN1CCOCC1)c1ccc(Cl)cc1` (stereo unspecified), for which the IC50 in the test with Toxoplasma gondii and in the test with Entamoeba histolytica was greater than 30 µM in each case.

Regarding `Cc1ccc(-c2cc(C(=O)Nc3ccc(S(=O)(=O)N4CCCCC4)cc3)[nH]n2)c(O)c1`, the IC50 in the test on Toxoplasma gondii and with Entamoeba histolytica was greater than 30 µM throughout.

`CCOc1c(Cl)cc(CNCC(O)c2ccccc2)cc1OC` (stereo unspecified): the IC50 in the test on Toxoplasma gondii and in the test on Entamoeba histolytica was greater than 30 µM each time.

Consider `c1ccc2c(NCCc3c[nH]c4ccccc34)c3ccccc3nc2c1`, for which the values for the IC50 in the test with Toxoplasma gondii and in the test with Entamoeba histolytica were 3.05 µM and greater than 30 µM, respectively.

`Cc1ccc(C)c(Cn2c(N3CCC(C(=O)NCc4cccs4)CC3)nc3ccccc32)c1`: the 50% inhibitory concentration (IC50) with Toxoplasma gondii and with Entamoeba histolytica was greater than 30 µM each time.

Take `Cc1c(C)n(Cc2ccc(F)cc2)c2ccc(C(=O)NCc3ccco3)cc12`: the IC50 with Toxoplasma gondii and in the test on Entamoeba histolytica was greater than 30 µM each time.

As for `COc1cccc(C2(C)Nc3ccccc3-c3nc4ccccc4n32)c1` (stereo unspecified), the IC50 in the test on Toxoplasma gondii and with Entamoeba histolytica was greater than 30 µM throughout.

Regarding `CCN(CC)CCCNc1nc(-c2ccc(Cl)cc2)nc2ccccc12`, the IC50 with Toxoplasma gondii and in the test on Entamoeba histolytica was greater than 30 µM in each case.

In the case of `CC(NCc1ccccc1)c1cc(Cl)ccc1O` (stereo unspecified), the half-inhibitory concentration (IC50) was 21.4 µM in the test with Toxoplasma gondii and greater than 30 µM with Entamoeba histolytica.

For the compound `CCCn1c(=N)c(C(=O)NC2CCCCC2)cc2c(=O)n3cccc(C)c3nc21`, the 50% inhibitory concentration (IC50) in the test on Toxoplasma gondii and with Entamoeba histolytica was greater than 30 µM each time.

For `CCOc1cc2c(cc1OCC)C(c1cc(OC)c(O)cc1Cl)NCC2` (stereo unspecified), the half-maximal inhibitory concentration (IC50) in the test with Toxoplasma gondii and in the test with Entamoeba histolytica was greater than 30 µM each time.

Consider `COc1ccc2c(c1OC)C(=O)N1c3ccccc3N=C(c3ccc(C)cc3)CC21` (stereo unspecified), for which the IC50 with Toxoplasma gondii and in the test with Entamoeba histolytica was greater than 30 µM each time.

Take `Oc1ccc2ccccc2c1CNc1nc2ccccc2[nH]1`: the IC50 in the test with Toxoplasma gondii and with Entamoeba histolytica was greater than 30 µM in each case.

On to `CNCCCNc1ccnc2cc(Cl)ccc12`, for which the IC50 in the test with Toxoplasma gondii and in the test on Entamoeba histolytica was greater than 30 µM in each case.

In the case of `Cn1c(=O)c2cc(C(=O)NCCCN3CCCCCC3)sc2c2ccccc21`, the IC50 in the test on Toxoplasma gondii and with Entamoeba histolytica was greater than 30 µM in each case.

In the case of `CC(C)(C)CC(C)(C)NCC(O)COc1ccc(Cl)cc1Cl` (stereo unspecified), the IC50 with Toxoplasma gondii and in the test on Entamoeba histolytica was greater than 30 µM each time.

Regarding `COc1cccc(O)c1CN1CCC2(CCCN(Cc3ccc(F)cc3)C2)C1` (stereo unspecified), the IC50 in the test on Toxoplasma gondii and in the test with Entamoeba histolytica was greater than 30 µM in each case.

Regarding `Cc1ccc2c(C)nc(Nc3nc(C)cc(-c4ccccc4)n3)nc2c1`, the concentration for half-maximal inhibition (IC50) in the test on Toxoplasma gondii and in the test with Entamoeba histolytica was greater than 30 µM in each case.

In the case of `Cc1ccc(Nc2nc(N)c3ccccc3n2)cc1Cl`, the IC50 in the test on Toxoplasma gondii and in the test with Entamoeba histolytica was greater than 30 µM in each case.

With `CN1CCN(c2ncnc3c2[nH]c2ccc(Cl)cc23)CC1`, the concentration for half-maximal inhibition (IC50) in the test with Toxoplasma gondii and with Entamoeba histolytica was greater than 30 µM each time.

Consider `O=C(NC1CCN(Cc2ccccc2)CC1)c1cc2nc(-c3ccc(Cl)s3)cc(C(F)(F)F)n2n1`, for which the IC50 in the test on Toxoplasma gondii and in the test on Entamoeba histolytica was greater than 30 µM in each case.

As for `CCOC(=O)C1=C(C)N=c2sc(=Cc3cc(Cl)ccc3O)c(=O)n2C1c1ccc(OC)cc1` (stereo unspecified), the half-maximal inhibitory concentration (IC50) in the test with Toxoplasma gondii was 24.9 µM; with Entamoeba histolytica, greater than 30 µM.

In the case of `CC1=C(CC(=O)c2cccc([N+](=O)[O-])c2)C(=O)c2ccccc2C1=O`, the IC50 with Toxoplasma gondii and with Entamoeba histolytica was greater than 30 µM each time.

For `O=C(Nc1ccccc1O)c1ccc(-c2ccc(Cl)cc2Cl)o1`, the IC50 in the test with Toxoplasma gondii and in the test on Entamoeba histolytica was greater than 30 µM in each case.

In the case of `CN(C)c1ccc(N2C(N)=NC(N)=NC2(C)C)cc1`, the results for the IC50 in the test on Toxoplasma gondii and with Entamoeba histolytica were 28.9 µM and greater than 30 µM, respectively.

With `CN1CCN(c2c3c(c(C#N)c4nc5ccccc5n24)CCC3)CC1`, the IC50 with Toxoplasma gondii and in the test with Entamoeba histolytica was greater than 30 µM each time.

`COc1ccc(C=C2SC(Nc3ccc(F)cc3)=NC2=O)c(OC)c1`: the IC50 in the test on Toxoplasma gondii and in the test on Entamoeba histolytica was greater than 30 µM each time.

As for `Oc1ccc(Br)cc1CN1CCN(Cc2cccc(F)c2)CC1`, the IC50 in the test on Toxoplasma gondii and in the test on Entamoeba histolytica was greater than 30 µM in each case.

With `CCCCCn1c(=N)n(CC(O)COc2cccc(C)c2)c2ccccc21` (stereo unspecified), the IC50 with Toxoplasma gondii was 17.9 µM; in the test with Entamoeba histolytica it was greater than 30 µM.

In the case of `Cc1cc(Nc2ccc3ccccc3c2)n2ncnc2n1`, the IC50 in the test on Toxoplasma gondii and in the test on Entamoeba histolytica was greater than 30 µM throughout.

`CCOc1cc(CNC(C)C(O)c2ccccc2)cc(Cl)c1OCC` (stereo unspecified): the 50% inhibitory concentration (IC50) with Toxoplasma gondii and with Entamoeba histolytica was greater than 30 µM each time.

Consider `CCOC(=O)c1cnc2c(C)cc(C)cc2c1Nc1ccc(OC)c(OC)c1`, for which the IC50 in the test with Toxoplasma gondii and in the test with Entamoeba histolytica was greater than 30 µM throughout.

On to `CC(C)CCNCC(O)Cn1c2ccccc2c2ccccc21` (stereo unspecified), for which the IC50 with Toxoplasma gondii and with Entamoeba histolytica was greater than 30 µM throughout.

As to `O=C(NC1CCCCC1)C(c1cccs1)N(CCc1ccccc1)C(=O)c1ccco1` (stereo unspecified), the IC50 in the test on Toxoplasma gondii and in the test with Entamoeba histolytica was greater than 30 µM in each case.

For `COc1ccc(-c2cc3c(nn2)-c2ccccc2C3=O)cc1`, the IC50 in the test on Toxoplasma gondii and with Entamoeba histolytica was greater than 30 µM in each case.

Take `COc1ccc(C(=O)Nc2ccc3nc(N4CCCCC4)cc(C)c3c2)cc1OC`: the IC50 with Toxoplasma gondii is 25.7 µM; with Entamoeba histolytica, greater than 30 µM.

On to `CCOC(=O)C1CCN(C(=O)CN2C(=O)c3ccccc3C2c2c[nH]c3ccccc23)CC1` (stereo unspecified), for which the concentration for half-maximal inhibition (IC50) with Toxoplasma gondii and in the test with Entamoeba histolytica was greater than 30 µM throughout.

`OC(CNC1CCCC1)Cn1c2ccccc2c2ccccc21` (stereo unspecified): the IC50 in the test with Toxoplasma gondii and in the test with Entamoeba histolytica was greater than 30 µM throughout.

In the case of `CCOC(=O)C1(Cc2ccccc2)CCN(Cc2cccc(OC)c2O)CC1`, the IC50 in the test with Toxoplasma gondii and in the test on Entamoeba histolytica was greater than 30 µM each time.

Regarding `CCCCCCc1cc2cc(-c3csc(C=Cc4ccccc4)n3)c(=O)oc2cc1O`, the IC50 in the test with Toxoplasma gondii and in the test with Entamoeba histolytica was greater than 30 µM in each case.

With `N#Cc1nc(Cc2cccc3ccccc23)oc1N1CCN(C(c2ccccc2)c2ccccc2)CC1`, the IC50 in the test on Toxoplasma gondii and in the test with Entamoeba histolytica was greater than 30 µM throughout.

For `OC(Cn1nnc2ccccc21)Cn1c2ccc(Br)cc2c2cc(Br)ccc21` (stereo unspecified), the 50% inhibitory concentration (IC50) in the test on Toxoplasma gondii and with Entamoeba histolytica was greater than 30 µM in each case.

In the case of `COc1ccccc1N1CCN(C(CNS(=O)(=O)c2ccc(Cl)cc2)c2cccnc2)CC1` (stereo unspecified), the IC50 in the test on Toxoplasma gondii and with Entamoeba histolytica was greater than 30 µM each time.

Consider `O=C(Nc1ccc(Br)cc1)Nc1cccc(Cl)c1`, for which the IC50 in the test on Toxoplasma gondii and with Entamoeba histolytica was greater than 30 µM in each case.

With `Cc1sc(NC(=O)c2ccccc2)c(C(c2cccs2)N2CCN(c3ccccc3)CC2)c1C` (stereo unspecified), the concentration for half-maximal inhibition (IC50) in the test on Toxoplasma gondii and in the test on Entamoeba histolytica was greater than 30 µM each time.

Turning to `COc1ccc2nc(C)cc(Nc3cccc(O)c3)c2c1`, the half-maximal inhibitory concentration (IC50) in the test on Toxoplasma gondii and in the test with Entamoeba histolytica was greater than 30 µM each time.

In the case of `O=C(NCc1ccco1)C1CCN(S(=O)(=O)c2ccc(Br)cc2)CC1`, the IC50 with Toxoplasma gondii and with Entamoeba histolytica was greater than 30 µM each time.

With `O=C1CC(O)(C(F)(F)C(F)(F)F)Oc2ccccc21` (stereo unspecified), the half-inhibitory concentration (IC50) in the test on Toxoplasma gondii and in the test on Entamoeba histolytica was greater than 30 µM throughout.

Consider `C=CCc1c(C)nc2ccccc2c1O`, for which the IC50 in the test with Toxoplasma gondii and in the test with Entamoeba histolytica was greater than 30 µM each time.

As to `CCN1CCN(c2c(C(=O)c3ccccc3)cnc3cc(OC)c(OC)cc23)CC1`, the 50% inhibitory concentration (IC50) with Toxoplasma gondii and in the test with Entamoeba histolytica was greater than 30 µM in each case.

Regarding `Cc1[nH]c(-c2ccc(F)cc2)cc1C(=O)NC1CCN(Cc2ccccc2)CC1`, the half-inhibitory concentration (IC50) in the test on Toxoplasma gondii and in the test with Entamoeba histolytica was greater than 30 µM each time.

Regarding `CCN(CC)CCCNc1ccnc2cc3ccccc3cc12`, the IC50 in the test with Toxoplasma gondii and in the test with Entamoeba histolytica was greater than 30 µM in each case.

Take `COc1ccc(C2Sc3ccccc3N=C3C2=C(O)c2ccccc23)cc1` (stereo unspecified): the IC50 in the test with Toxoplasma gondii and with Entamoeba histolytica was greater than 30 µM throughout.

Turning to `Cc1ccc2nc(C)cc(Nc3cccc(C(F)(F)F)c3)c2c1`, the half-maximal inhibitory concentration (IC50) with Toxoplasma gondii and with Entamoeba histolytica was greater than 30 µM throughout.

As for `CCOc1cc2c(cc1OCC)C(c1cc(Cl)ccc1O)NCC2` (stereo unspecified), the IC50 in the test with Toxoplasma gondii and in the test with Entamoeba histolytica was greater than 30 µM in each case.

Regarding `CCN(CC)CCNc1ncnc2c1[nH]c1ccc(Br)cc12`, the IC50 with Toxoplasma gondii and in the test with Entamoeba histolytica was greater than 30 µM each time.

In the case of `Cc1sc2ncnc(Sc3nc4ccccc4[nH]3)c2c1C`, the IC50 in the test with Toxoplasma gondii was 13.9 µM; with Entamoeba histolytica, greater than 30 µM.

Take `COc1ccc(Nc2cc(C)nc(NCc3ccccc3)n2)cc1`: the 50% inhibitory concentration (IC50) in the test with Toxoplasma gondii and in the test on Entamoeba histolytica was greater than 30 µM each time.

As for `Cc1cc(Nc2ccc(OCc3ccccc3)cc2)nc2cc(O)ccc12`, the IC50 in the test on Toxoplasma gondii and in the test with Entamoeba histolytica was greater than 30 µM throughout.

Consider `COc1ccc2nc(C)cc(Nc3ccc(Cl)cc3)c2c1`, for which the IC50 in the test on Toxoplasma gondii and with Entamoeba histolytica was greater than 30 µM in each case.

As for `COC(=O)c1ccc(C2C3=C(O)CC(c4ccc(F)cc4)CC3=Nc3ccccc3N2C(=O)c2ccccc2)cc1` (stereo unspecified), the 50% inhibitory concentration (IC50) with Toxoplasma gondii and in the test with Entamoeba histolytica was greater than 30 µM throughout.
